Laboratory results reported in ChEMBL document CHEMBL3046758, “Biological evaluation of novel 1,4-dithiine derivatives as potential antimicrobial agents” (Med Chem Res, 2011).
Values after ≈ are worked out from the molar mass of the structure shown.

Key:
[1] = system: Candida albicans; test: Antifungal activity against Candida albicans DSM 1386 after 24 to 48 hr by broth microdilution method; type: functional
[2] = system: Pseudomonas aeruginosa; test: Antibacterial activity against Pseudomonas aeruginosa DSM 1117 after 16 to 20 hr by broth microdilution method; type: functional
[3] = system: Poliovirus 1; test: Antiviral activity against Human poliovirus 1 strain Sabin infected African green monkey Vero76 cells assessed as reduction of virus-induced plaque reduction after 2 days by MTT assay; type: functional, organism-based; settings: Enterovirus C, Vero 76, 48 h
[4] = system: Staphylococcus aureus; test: Antibacterial activity against Staphylococcus aureus DSM 2569 after 16 to 20 hr by broth microdilution method; type: functional
[5] = system: Vaccinia virus; test: Antiviral activity against Vaccinia virus infected African green monkey Vero76 cells assessed as reduction of virus-induced plaque reduction after 3 days by MTT assay; type: functional, organism-based; settings: Orthopoxvirus vaccinia, Vero 76, 72 h
[6] = Selectivity index, ratio of CC50 for green monkey Vero76 cells to EC50 for Yellow fever virus; type: toxicity, cell-based, Vero 76; settings: read-out: Ratio CC50/EC50
[7] = system: Vesicular stomatitis virus; test: Antiviral activity against Vesicular stomatitis virus infected african green monkey Vero76 cells assessed as reduction of virus-induced plaque reduction after 3 days by MTT assay; type: functional, organism-based; settings: Vero 76, 72 h
[8] = system: Human alphaherpesvirus 1; test: Antiviral activity against Human herpesvirus 1 infected African green monkey Vero76 cells assessed as reduction of virus-induced plaque reduction after 3 days by MTT assay; type: functional, organism-based; settings: Human alphaherpesvirus 1, Vero 76, 72 h
[9] = Selectivity index, ratio of CC50 for green monkey Vero76 cells to EC50 for Coxsackievirus B2; type: toxicity, cell-based, Vero 76; settings: read-out: Ratio CC50/EC50
[10] = Cytotoxicity against Chlorocebus aethiops (African green monkey) Vero76 cells after 48 to 120 hr by MTT assay; type: cell-based, Vero 76; settings: chlorocebus sabaeus
[11] = system: Coxsackievirus B2; test: Antiviral activity against Human coxsackievirus B2 infected African green monkey Vero76 cells assessed as reduction of virus-induced plaque reduction after 3 days by MTT assay; type: functional, organism-based; settings: Enterovirus B, Vero 76, 72 h
[12] = system: Aspergillus niger; test: Antifungal activity against Aspergillus niger DSM 1988 after 24 to 48 hr by broth microdilution method; type: functional
[13] = system: Mammalian orthoreovirus 1; test: Antiviral activity against Mammalian orthoreovirus 1 infected BHK21 cells assessed as inhibition of virus-induced cytopathogenicity after 3 to 4 days by MTT assay; type: functional, organism-based; settings: Mammalian orthoreovirus 1, BHK-21
[14] = system: Yellow fever virus; test: Antiviral activity against Yellow fever virus infected BHK21 cells assessed as inhibition of virus-induced cytopathogenicity after 3 to 4 days by MTT assay; type: functional, organism-based; settings: BHK-21
[15] = Cytotoxicity against Cricetinae BHK21 (hamster normal kidney fibroblast) cells after 48 to 120 hr by MTT assay; type: cell-based, Mesocricetus auratus, BHK-21; settings: BHK21 cells (normal kidney fibroblasts)
[16] = system: Bovine viral diarrhea virus 1; test: Antiviral activity against Bovine viral diarrhea virus 1 infected MDBK cells assessed as inhibition of virus-induced cytopathogenicity after 3 to 4 days by MTT assay; type: functional, organism-based; settings: Bovine viral diarrhea virus isolates and strains
[17] = Cytotoxicity against Bos taurus MDBK cells after 48 to 120 hr by MTT assay; type: cell-based; settings: cattle
[18] = system: Human immunodeficiency virus 1; test: Antiviral activity against Human immunodeficiency virus 1 infected human MT4 cells assessed as inhibition of virus-induced cytopathogenicity after 4 days by MTT assay; type: functional, organism-based; settings: Human immunodeficiency virus 1, MT4, 96 h
[19] = Cytotoxicity against Homo sapiens (human) MT4 cells containing integrated HTLV-1 genome after 96 hr by MTT assay; type: cell-based
[20] = Selectivity index, ratio of CC50 for green monkey Vero76 cells to EC50 for HSV1; set-up: species or system Vero 76

Structure (SMILES) | MIC [1] [µM] | MIC [2] [µM] | EC50 [3] [µM] | MIC [4] [µM] | EC50 [5] [µM] | selectivity ratio [6] | EC50 [7] [µM] | EC50 [8] [µM] | selectivity ratio [9] | CC50 [10] [µM] | EC50 [11] [µM] | MIC [12] [µM] | EC50 [13] [µM] | EC50 [14] [µM] | CC50 [15] [µM] | EC50 [16] [µM] | CC50 [17] [µM] | EC50 [18] [µM] | CC50 at 96 h [19] [µM] | Ratio CC50/EC50 [20]
O=C1C2=C(SCCS2)C(=O)N1CCCN1CCN(c2ccc(F)cc2)CC1 | > 100 | > 100 | > 96 | > 100 | > 96 | > 1.92 | > 96 | > 96 | > 4.8 | 96 | 20 | > 100 | > 100 | 52 | > 100 | > 100 | > 100 | > 100 | > 100 | –
CN(C)CC(O)CN1C(=O)C2=C(SCCS2)C1=O (stereo unspecified) | > 100 | > 100 | – | > 100 | – | – | – | – | – | – | – | > 100 | – | – | – | – | – | – | > 100 | –
O=C(O)c1cn(C2CC2)c2cc(N3CCNCC3)c(F)cc2c1=O [CIPROFLOXACIN] | – | 0.8 (≈ 0.265 µg/mL) | – | 4 (≈ 1.33 µg/mL) | – | – | – | – | – | – | – | – | – | – | – | – | – | – | – | –
O=C1C2=C(SCCS2)C(=O)N1CCCCN1CCN(c2ncccn2)CC1 | – | – | – | – | – | – | – | – | – | – | – | – | – | – | – | – | – | – | > 100 | –
O=C1C2=C(SCCS2)C(=O)N1CC(O)CN1CCN(c2ccccn2)CC1 (stereo unspecified) | > 100 | > 100 | – | > 100 | – | – | – | – | – | – | – | > 100 | – | – | – | – | – | – | > 100 | –
O=C1C2=C(SCCS2)C(=O)N1CCCCN1CCN(c2ccccc2)CC1 | > 100 | > 100 | > 100 | > 100 | > 100 | > 1.14 | > 100 | 19 | > 1.51 | > 100 | 66 | > 100 | > 100 | 88 | > 100 | > 100 | > 100 | > 100 | > 100 | >5.26
O=C1C2=C(SCCS2)C(=O)N1CCCN1CCN(c2ccccn2)CC1 | > 100 | > 100 | – | > 100 | – | – | – | – | – | – | – | > 100 | – | – | – | – | – | – | > 100 | –
CC1CCN(CC(O)CN2C(=O)C3=C(SCCS3)C2=O)CC1 (stereo unspecified) | > 100 | > 100 | – | > 100 | – | – | – | – | – | – | – | > 100 | – | – | – | – | – | – | > 100 | –
O=C1C2=C(SCCS2)C(=O)N1CCCCN1CCN(c2ccccc2O)CC1 | – | – | – | – | – | – | – | – | – | – | – | – | – | – | – | – | – | – | > 100 | –
COc1ccccc1N1CCN(CC(O)CN2C(=O)C3=C(SCCS3)C2=O)CC1 (stereo unspecified) | > 100 | > 100 | > 100 | > 100 | > 100 | > 1.33 | > 100 | > 100 | – | > 100 | > 100 | > 100 | > 100 | 75 | > 100 | > 100 | > 100 | > 100 | > 100 | –
Clc1ccc(COC(Cn2ccnc2)c2ccc(Cl)cc2Cl)c(Cl)c1 (stereo unspecified) [MICONAZOLE] | 0.8 (≈ 0.333 µg/mL) | – | – | – | – | – | – | – | – | – | – | 20 (≈ 8.32 µg/mL) | – | – | – | – | – | – | – | –
O=C1C2=C(SCCS2)C(=O)N1CC(O)CN1CCN(c2ccc(F)cc2)CC1 (stereo unspecified) | > 100 | > 100 | > 100 | > 100 | > 100 | > 1.25 | > 100 | > 100 | – | > 100 | > 100 | > 100 | > 100 | 80 | > 100 | > 100 | > 100 | > 100 | > 100 | –
O=C1C2=C(SCCS2)C(=O)N1CC(O)CN1CCN(c2ccccc2)CC1 (stereo unspecified) | > 100 | > 100 | – | > 100 | – | – | – | – | – | – | – | > 100 | – | – | – | – | – | – | > 100 | –
CCN(CC)CC(O)CN1C(=O)C2=C(SCCS2)C1=O (stereo unspecified) | > 100 | > 100 | – | > 100 | – | – | – | – | – | – | – | > 100 | – | – | – | – | – | – | > 100 | –
